Source: article PMC8842310 (Journal of Medicinal Chemistry, 2022)

System: CDI iCell cardiomyocytes
Conditions: geometric mean of the MEC values for beat period, Na+ slope, Na+ amplitude, field duration

Compound: CCNC(=N)NC(=O)Nc1c(CC)cc(NS(=O)(=O)c2ccccc2)cc1CC [5n, N-(3,5-Diethyl-4-(3-(N-ethylcarbamimidoyl)ureido)phenyl)benzenesulfonamide]
- MEC Gmean cardiomyocytes: 8.9 µM
